Several values for one entry are separate records, joined by “and”; a condition that tells them apart may be missing. Identical values can stand only once. Inconclusive results and toxic doses are left out. The calls were made as follows: active = survival T/C of 150% or more; inactive = T/C below 125% in these data.
System: P388 leukemia ip, CD2F1 mice, survival T/C
Assay: NCI In Vivo Anticancer Drug Screen. Data for tumor model P388 Leukemia (intraperitoneal) in CD2F1 (CDF1) mice
Settings: endpoint: median survival time, higher = longer survival
How it was run: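 Mice carrying the transplanted tumor received test compound or vehicle. Survival was recorded in each group, and the value is the treated-group measurement divided by that of the vehicle-treated control group.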

[1] = dose: 25.0 mg/kg/injection, schedule: Q01DX009 (ip), vehicle: saline with Tween-80
[2] = dose: 50.0 mg/kg/injection, schedule: Q01DX009 (ip), vehicle: saline with Tween-80
[3] = dose: 100.0 mg/kg/injection, schedule: Q01DX009 (ip), vehicle: saline with Tween-80
[4] = dose: 60.0 mg/kg/injection, schedule: Q01DX005 (ip), vehicle: saline with Tween-80
[5] = dose: 120.0 mg/kg/injection, schedule: Q01DX005 (ip), vehicle: saline with Tween-80
[6] = dose: 240.0 mg/kg/injection, schedule: Q01DX005 (ip), vehicle: saline with Tween-80
[7] = dose: 7.5 mg/kg/injection, schedule: Q01DX005 (ip), vehicle: saline with Tween-80
[8] = dose: 15.0 mg/kg/injection, schedule: Q01DX005 (ip), vehicle: saline with Tween-80
[9] = dose: 60.0 mg/kg/injection, schedule: Q01DX005 (ip), vehicle: saline
[10] = dose: 120.0 mg/kg/injection, schedule: Q01DX005 (ip), vehicle: saline
[11] = dose: 240.0 mg/kg/injection, schedule: Q01DX005 (ip), vehicle: saline
[12] = dose: 12.5 mg/kg/injection, schedule: Q01DX009 (ip), vehicle: saline with Tween-80
[13] = dose: 50.0 mg/kg/injection, schedule: Q01DX005 (ip), vehicle: Klucel (hydroxypropylcellulose) (HPC)
[14] = dose: 100.0 mg/kg/injection, schedule: Q01DX005 (ip), vehicle: Klucel (hydroxypropylcellulose) (HPC)
[15] = dose: 200.0 mg/kg/injection, schedule: Q01DX005 (ip), vehicle: Klucel (hydroxypropylcellulose) (HPC)
[16] = dose: 60.0 mg/kg/injection, schedule: Q01DX005 (ip), vehicle: Klucel (hydroxypropylcellulose) (HPC)
[17] = dose: 120.0 mg/kg/injection, schedule: Q01DX005 (ip), vehicle: Klucel (hydroxypropylcellulose) (HPC)
[18] = dose: 240.0 mg/kg/injection, schedule: Q01DX005 (ip), vehicle: Klucel (hydroxypropylcellulose) (HPC)

Measured: T/C

Cc1ccc(N(O)C(C)(C)C)cc1
inactive: [1] 97 % of control | dose: 25.0 mg/kg/injection, schedule: Q04DX003 (ip), vehicle: gum acacia 99 % of control | [2] 91 % of control | dose: 50.0 mg/kg/injection, schedule: Q04DX003 (ip), vehicle: gum acacia 100 % of control | [3] 102 % of control | dose: 100.0 mg/kg/injection, schedule: Q04DX003 (ip), vehicle: gum acacia 110 % of control | dose: 200.0 mg/kg/injection, schedule: Q04DX003 (ip), vehicle: gum acacia 100 % of control

CC(N=[N+]=[N-])n1nnnc1-c1ccccc1 (stereo not given)
inactive: dose: 25.0 mg/kg/injection, schedule: Q01DX001 (ip), vehicle: Klucel (hydroxypropylcellulose) (HPC) 101 % of control | dose: 50.0 mg/kg/injection, schedule: Q01DX001 (ip), vehicle: Klucel (hydroxypropylcellulose) (HPC) 121 % of control | dose: 100.0 mg/kg/injection, schedule: Q01DX001 (ip), vehicle: Klucel (hydroxypropylcellulose) (HPC) 113 % of control and 120 % of control | dose: 200.0 mg/kg/injection, schedule: Q01DX001 (ip), vehicle: Klucel (hydroxypropylcellulose) (HPC) 91 % of control

C=C(C)C1CC2(C)C(C)C(OC(=O)/C(C)=C\C)CCC2C(O)C1=O (stereo not given)
inactive: dose: 15.0 mg/kg/injection, schedule: Q04DX002 (ip), vehicle: distilled water + alcohol 96 % of control | dose: 30.0 mg/kg/injection, schedule: Q04DX002 (ip), vehicle: distilled water + alcohol 104 % of control | dose: 57.5 mg/kg/injection, schedule: Q04DX002 (ip), vehicle: distilled water + alcohol 107 % of control

O=C(OC1CCC2(CC1)N=NC1(CCC(OC(=O)c3ccccc3)CC1)S2)c1ccccc1 (stereo not given)
inactive: dose: 50.0 mg/kg/injection, schedule: Q01DX009 (ip), vehicle: saline 98 % of control | dose: 100.0 mg/kg/injection, schedule: Q01DX009 (ip), vehicle: saline 97 % of control | dose: 200.0 mg/kg/injection, schedule: Q01DX009 (ip), vehicle: saline 101 % of control

NC(CSC1c2ccccc2-c2ccccc21)C(=O)O (stereo not given)
inactive: [4] 90 % of control | [5] 98 % of control | [6] 92 % of control

COc1cncn2c(C)nnc12
inactive: dose: 50.0 mg/kg/injection, schedule: Q01DX005 (ip), vehicle: saline 100 % of control | dose: 100.0 mg/kg/injection, schedule: Q01DX005 (ip), vehicle: saline 99 % of control | dose: 200.0 mg/kg/injection, schedule: Q01DX005 (ip), vehicle: saline 94 % of control

O=C(CCNC(=O)OCc1ccccc1)NC(CSCc1ccccc1)C(=O)O (stereo not given)
inactive: dose: 6.25 mg/kg/injection, schedule: Q01DX009 (ip), vehicle: water 100 % of control | dose: 12.5 mg/kg/injection, schedule: Q01DX009 (ip), vehicle: water 100 % of control | dose: 25.0 mg/kg/injection, schedule: Q01DX009 (ip), vehicle: water 95 % of control | dose: 50.0 mg/kg/injection, schedule: Q01DX009 (ip), vehicle: water 100 % of control | dose: 100.0 mg/kg/injection, schedule: Q01DX009 (ip), vehicle: water 95 % of control

O=C(c1ccc(Cl)cc1)N1CCN(C(=O)N2CCN(C(=O)N3CCN(C(=O)c4ccc(Cl)cc4)CC3)CC2)CC1
inactive: dose: 3.75 mg/kg/injection, schedule: Q01DX005 (ip), vehicle: saline with Tween-80 99 % of control | [7] 99 % of control | [8] 100 % of control | dose: 30.0 mg/kg/injection, schedule: Q01DX005 (ip), vehicle: saline with Tween-80 89 % of control | [4] 92 % of control | [6] 89 % of control

CC1=CC(=O)CCC12CCOC2=O (stereo not given)
inactive: [4] 104 % of control | [5] 101 % of control | [6] 101 % of control

O=C(O)CC1CCC1CC(=O)O (stereo not given)
inactive: [2] 95 % of control | [3] 95 % of control

COP(=O)(CC(=O)CCCCCO[Si](C)(C)C(C)(C)C)OC
inactive: [9] 98 % of control | [10] 99 % of control | [11] 100 % of control

CCOC(=O)C(C)(CCC(C)=O)C(=O)OCC
inactive: [9] 100 % of control | [10] 99 % of control | [11] 108 % of control

N#CCc1noc2ccccc12
inactive: [12] 103 % of control | [1] 109 % of control

CCCCCCCCCCCCCCCC(=O)N(CCCN(C)C)C1CCC(N(CCCN(C)C)C(=O)CCCCCCCCCCCCCCC)CC1 (stereo not given)
inactive: dose: 3.13 mg/kg/injection, schedule: Q01DX009 (ip), vehicle: saline sonified 90 % of control | dose: 6.25 mg/kg/injection, schedule: Q01DX009 (ip), vehicle: saline sonified 90 % of control | dose: 12.5 mg/kg/injection, schedule: Q01DX009 (ip), vehicle: saline sonified 90 % of control

Cc1ccc(NCC2CCCN3CCCCC23)c2c(=O)c3cc(O)ccc3sc12 (stereo not given)
inactive: dose: 100.0 mg/kg/injection, schedule: Q04DX002 (ip), vehicle: saline with Tween-80 97 % of control | dose: 200.0 mg/kg/injection, schedule: Q04DX002 (ip), vehicle: saline with Tween-80 102 % of control

O=C1C=CC(=O)C=C1 (tested in a mixture with another compound)
inactive: dose: 1.0 mg/kg/injection, schedule: Q01DX009 (ip), vehicle: saline sonified 100 % of control | dose: 2.0 mg/kg/injection, schedule: Q01DX009 (ip), vehicle: saline sonified 109 % of control | dose: 3.0 mg/kg/injection, schedule: Q01DX009 (ip), vehicle: saline sonified 100 % of control | dose: 6.0 mg/kg/injection, schedule: Q01DX009 (ip), vehicle: saline sonified 100 % of control

Cn1ccc2c3c4ccccc4ccc3c3c(ccn3C)c21
active: [13] 197 % of control | [14] 177 % of control | [15] 239 % of control

CC(=O)Oc1ccc(C2c3c(n(C(C)=O)c4ccccc34)C(=O)NN2C(C)=O)cc1 (stereo not given)
inactive: [13] 100 % of control | [14] 109 % of control | [15] 112 % of control

COCN(C)N=Nc1ccc(C#N)cc1
inactive: [16] 100 % of control | [17] 117 % of control | [18] 117 % of control

O=c1c(CO)c(-c2ccccc2)sc2ccccc12
inactive: [16] 96 % of control | [17] 97 % of control | [18] 95 % of control

ClC(Cl)(Cl)C1=NCc2nnn(Cc3ccccc3)c2N1
inactive: dose: 6.25 mg/kg/injection, schedule: Q01DX009 (ip), vehicle: Klucel (hydroxypropylcellulose) (HPC) 113 % of control | dose: 6.25 mg/kg/injection, schedule: Q01DX009 (ip), vehicle: saline with Tween-80 118 % of control | dose: 12.5 mg/kg/injection, schedule: Q01DX009 (ip), vehicle: Klucel (hydroxypropylcellulose) (HPC) 114 % of control | [12] 115 % of control and 117 % of control | [1] 105 % of control and 106 % of control | dose: 50.0 mg/kg/injection, schedule: Q01DX009 (ip), vehicle: Klucel (hydroxypropylcellulose) (HPC) 104 % of control | [3] 110 % of control | dose: 200.0 mg/kg/injection, schedule: Q01DX009 (ip), vehicle: saline with Tween-80 100 % of control and 113 % of control | dose: 400.0 mg/kg/injection, schedule: Q01DX009 (ip), vehicle: saline with Tween-80 96 % of control

c1ccc(C(=C2C(=C(c3ccccc3)c3ccccc3)c3nc4ccccc4nc32)c2ccccc2)cc1
inactive: [7] 90 % of control | [8] 88 % of control | [4] 86 % of control | [5] 87 % of control | [6] 90 % of control

NC(Cc1cccs1)C(=O)Nc1nncs1 (stereo not given)
active: dose: 400.0 mg/kg/injection, schedule: Q04DX002 (ip), vehicle: saline 160 % of control | dose: 600.0 mg/kg/injection, schedule: Q04DX002 (ip), vehicle: saline 160 % of control
inactive: dose: 100.0 mg/kg/injection, schedule: Q04DX002 (ip), vehicle: suspension in saline 95 % of control | dose: 200.0 mg/kg/injection, schedule: Q04DX002 (ip), vehicle: suspension in saline 119 % of control | dose: 400.0 mg/kg/injection, schedule: Q04DX002 (ip), vehicle: suspension in saline 121 % of control

COc1ccc2c3c([nH]c2c1)[C@H]1C[C@H]2[C@H](C[C@@H](O)[C@H](OC)[C@H]2C(=O)O)CN1CC3
inactive: [13] 100 % of control | [14] 100 % of control | [15] 101 % of control

— PubChem BioAssay AID330 (DTP/NCI, 2004)
